Measurements: PubChem BioAssay AID540252 (Sanford-Burnham Center for Chemical Genomics, 2011)
Activity calls are given as the source filed them. How the calls were made is not given here.

Biological target: glucose-6-phosphate dehydrogenase-6-phosphogluconolactonase (Plasmodium falciparum 3D7)
Experiment: PfG6PD enzyme inhibitors, direct NADPH readout, dose response, orthogonal assay, biochemical, end-point NADPH detection (AID 540252)
Settings: purified PfG6PD enzyme

CCC(=O)OCOc1ccc(/C=C2/CCC(CN(C)C)C2=O)cc1 (centres undefined)
IC50: > 80 µM (inactive)

CCOc1ccccc1C=NNC(=O)CCCCC(=O)NN=Cc1ccccc1OCC
IC50: > 80 µM (inactive)

COc1cc(N(C)C)ccc1C=c1c2ccccc2n2c1cc(-c1ccccc1)[n+]2C
IC50: > 80 µM (inactive)

Cn1sc2ccccc2c1=O
IC50: 52.3 µM

O=C(COC(=O)c1cnccn1)c1ccc([N+](=O)[O-])cc1
IC50: 54.9 µM

CC(=O)Nc1ccc(S(=O)(=O)/N=C2\C(=O)c3ccccc3C([O-])=C2n2cc[n+](-c3ccccn3)c2)cc1
IC50: > 80 µM (inactive)

COc1cc(NCCCn2cnc3c(OCc4ccccc4)ncnc32)cc(OC)c1OC
IC50: > 80 µM (inactive)

Cc1ccc2nc(-c3ccc(NC(=S)NC4CC(C)(C)NC(C)(C)C4)cc3)sc2c1
IC50: > 80 µM (inactive)

CC1CCc2[nH]c3ccc(C(=O)N(C)CC(=O)Nc4ccccc4C(F)(F)F)cc3c2C1 (centres undefined)
IC50: > 80 µM (inactive)

O=c1c2ccccc2sn1-c1ccc(S(=O)(=O)N2CCCCC2)cc1
IC50: > 80 µM (inactive)

Nc1ccc(S(=O)(=O)c2cc(O)c3ccccc3c2O)cc1
IC50: > 80 µM (inactive)

COc1ccc(S(=O)(=O)/N=C2\C=C(Nc3ccc(O)cc3)C(=O)c3ccccc32)cc1
IC50: > 80 µM (inactive)

Cc1ccc(S(=O)(=O)Oc2cccc(/C=N/Nc3ccc(C(=O)O)cc3)c2)cc1
IC50: > 80 µM (inactive)

Clc1cccc(Cl)c1CNc1ccc(N2CCCC2)cc1
IC50: > 80 µM (inactive)

O=C(O)c1cccc(N2C(=O)C=CC2=O)c1
IC50: 67.4 µM

COc1cc(OC)c(C2CC(=O)N3CN(c4ccccc4)CSC3=C2C#N)cc1OC (centres undefined)
IC50: > 80 µM (inactive)

Cc1ccc(CNc2ccc(O)cc2)cc1
IC50: > 80 µM (inactive)

CCOC(=O)c1cnc2ccc(C)cc2c1Sc1ccccc1C(=O)OC
IC50: > 80 µM (inactive)

COc1ccc2ccccc2c1C1CC(=O)N2CN(C3CCCCC3)CSC2=C1C#N (centres undefined)
IC50: > 80 µM (inactive)

Brc1cc2[nH]cnc2c2ccccc12
IC50: > 80 µM (inactive)

Cc1[nH]c(=S)c(C#N)c(C)c1CCC#N
IC50: > 80 µM (inactive)

Cc1ccc(/C=C/C(=O)NC2CCCCCCC2)o1
IC50: > 80 µM (inactive)

O=c1c2ccccc2sn1-c1ccc(Cl)cc1
IC50: 17.2 µM

O=C(CNc1ccc2c(c1)OCO2)N/N=C\c1cn(Cc2ccccc2)c2ccccc12
IC50: > 80 µM (inactive)

COc1cc(C(=O)O/N=C2\C=CC(=O)C=C2C)cc(OC)c1OC
IC50: > 80 µM (inactive)

Nc1ccc(N(CCO)CCO)cc1
IC50: > 80 µM (inactive)

Cc1cc(C)c2c(=O)n(CC(=O)Nc3ccc(Br)c(C)c3)sc2n1
IC50: > 80 µM (inactive)

CCn1c2ccccc2c2cc(/C=N/n3cn[nH]c3=S)ccc21
IC50: > 80 µM (inactive)

Cc1nc2ccc(Nc3nc4cc(S(=O)(=O)N5CCOCC5)ccc4o3)cc2s1
IC50: > 80 µM (inactive)

COc1cc(C(=O)ON=C2C=C(C)C(=O)C(C)=C2)cc(OC)c1OC
IC50: > 80 µM (inactive)

CN1CCc2cc(O)cc3c2[C@H]1Cc1ccc(O)c(O)c1-3
IC50: > 80 µM (inactive)

O=S(=O)(Nc1cc(Sc2cccc3cccnc23)c(O)c2ccccc12)c1ccc(F)cc1
IC50: > 80 µM (inactive)

Cc1ccc(NC(=O)c2ccc(Cl)c(N3C(=O)C=CC3=O)c2)cc1
IC50: 33.4 µM

CC1(C)Nc2ccc(O)cc2-c2c1ssc2=S
IC50: > 80 µM (inactive)

O=[N+]([O-])c1cccc(SSc2cccc([N+](=O)[O-])c2)c1
IC50: 45.3 µM

CC(Cc1ccc(O)c(O)c1)C(C)Cc1ccc(O)c(O)c1 (centres undefined)
IC50: 68.4 µM

CCOc1ccc(CNc2ccc(N3CCCC3)cc2)cc1
IC50: > 80 µM (inactive)

O=C(CNC(=O)c1cccs1)NCC(=O)OCC(=O)c1ccc([N+](=O)[O-])cc1
IC50: 67.9 µM

[O-]/[N+](=C\c1ccco1)c1ccc(Cl)cc1
IC50: > 80 µM (inactive)

Cc1ccc(S(=O)(=O)N(C(=O)c2ccncc2)c2ccc(OC(=O)c3ccncc3)c3ccccc23)cc1
IC50: > 80 µM (inactive)

CC1=C(C)CS(=O)N(S(=O)(=O)c2ccc(Cl)cc2)C1 (centres undefined)
IC50: > 80 µM (inactive)

NC(=O)N/N=C/c1ccc(-n2nncc2-c2ccc(Cl)cc2)cc1
IC50: > 80 µM (inactive)

Cc1ccc(S(=O)(=O)SCCCSS(=O)(=O)c2ccc(C)cc2)cc1
IC50: 38.8 µM

N#C/C(C(=O)Nc1ccc(Cl)cc1)=C(/S)Nc1ccccc1
IC50: > 80 µM (inactive)

CCCNC(=O)Cn1sc2nc(C)cc(C)c2c1=O
IC50: > 80 µM (inactive)

c1cc2c(cc1NC1CCCCCC1)OCO2
IC50: > 80 µM (inactive)

COc1ccc2c(c1)c(=Cc1ccc(N(C)C)cc1)c1cc(-c3ccccc3)[n+](C)n12
IC50: > 80 µM (inactive)

COc1ccc(/C=C/c2nc3ccccc3n2C)cc1
IC50: > 80 µM (inactive)

Cn1c(=O)c2c([nH]c(=S)n2CCCc2ccccc2)n(C)c1=O
IC50: > 80 µM (inactive)

O=C1C(=Cc2cccc(O)c2O)SC(=S)N1CCCN1CCOCC1
IC50: 44.3 µM

Cc1ccc(-n2c(N)c(C(=O)N3CCN(C)CC3)sc2=S)cc1
IC50: 55.2 µM

CC1=C(O)C(=O)C=C2C1=CC=C1C2(C)CCC2(C)C3CC(C)(C(=O)O)CCC3(C)CCC12C (centres undefined)
IC50: > 80 µM (inactive)

Cc1cc(C)c2sc(NC(=O)C3=COCCO3)nc2c1
IC50: > 80 µM (inactive)

O=C(O)CSc1cc(NS(=O)(=O)c2cccc([N+](=O)[O-])c2)c2ccccc2c1O
IC50: > 80 µM (inactive)

CCOc1ccccc1NS(=O)(=O)c1c(C)noc1C
IC50: > 80 µM (inactive)

O=C(Cn1sc2ccccc2c1=O)Nc1ccccc1
IC50: 15.6 µM

CN(C)c1ccc(/C=C/c2ccc3c4ccccc4ccc3[n+]2-c2ccccc2)cc1
IC50: > 80 µM (inactive)

Cc1cc(O)c(C(C)C)cc1N=Cc1ccccc1[N+](=O)[O-]
IC50: > 80 µM (inactive)

Cc1ccccc1-n1sc2cc(F)ccc2c1=O
IC50: 8.11 µM

CN1CCN(C(=O)c2sc(=S)n(-c3ccccc3)c2N)CC1
IC50: 54.6 µM

O=c1c2cc([N+](=O)[O-])ccc2sn1-c1ccccc1
IC50: 13.9 µM

Cn1c(=O)[nH]c(=O)c2c1nc([N+](=O)[O-])n2Cc1ccccc1
IC50: > 80 µM (inactive)

Cc1no[n+]([O-])c1COc1cccc(/C=N/Nc2nncn2N)c1
IC50: > 80 µM (inactive)

O=C(NC1=CC(=O)c2ccccc2C1=O)c1ccccc1
IC50: > 80 µM (inactive)

O=C(CSc1nc2ccc(Cl)cc2[nH]1)NC1CCCc2ccccc21 (centres undefined)
IC50: > 80 µM (inactive)

CCOC(=O)Nc1ccc(NCc2ccc(F)cc2)nc1N
IC50: > 80 µM (inactive)

COc1c(O)ccc2c1CN1CCc3cc4c(cc3C1C2)OCO4 (centres undefined)
IC50: > 80 µM (inactive)

O=C1Nc2ccccc2C(=O)C1(Cl)Cc1ccccc1 (centres undefined)
IC50: > 80 µM (inactive)

Nc1c(O)cccc1C(=O)O
IC50: > 80 µM (inactive)

O=C(Nc1nc(-c2ccncc2)cs1)C1COc2ccccc2O1 (centres undefined)
IC50: > 80 µM (inactive)

O=C(Nc1ccccn1)c1sc2cc([N+](=O)[O-])ccc2c1Cl
IC50: > 80 µM (inactive)

O=C(Nc1nnc(S(=O)(=O)N2CCOCC2)s1)c1cccc(Br)c1
IC50: > 80 µM (inactive)

COc1ccccc1NS(=O)(=O)c1cc(NC(=O)c2ccc(Cl)nc2)ccc1N1CCCC1
IC50: > 80 µM (inactive)

CCN1CCN(C(=S)c2ccc(Cl)c(Cl)c2)CC1
IC50: > 80 µM (inactive)

COCCNC(=S)Nc1ccc(N2CCOCC2)c(S(=O)(=O)Nc2ccc(Cl)cc2)c1
IC50: > 80 µM (inactive)

Cc1ccc(Cl)cc1NC1=C/C(=N\S(=O)(=O)c2cccs2)c2ccccc2C1=O
IC50: > 80 µM (inactive)

O=C(O)CSc1cc(NS(=O)(=O)c2ccc(Cl)cc2)c2ccccc2c1O
IC50: > 80 µM (inactive)

CCOC(=O)Cc1cc(=O)n2[nH]c(C(C)(C)C)cc2n1
IC50: > 80 µM (inactive)

O=C(Cn1sc2ccccc2c1=O)Nc1ccc(Br)cc1
IC50: 22.4 µM

CN1C(=O)CSc2ccc(NC(=O)N3CCc4ccccc43)cc21
IC50: > 80 µM (inactive)

O=C1CCC[C@@H]2[C@@H](Cc3ccccc3)[C@H](N3CCN(c4ccccc4)CC3)C[C@@H]3CCN1[C@@H]32
IC50: > 80 µM (inactive)

CC(=O)Nc1cc([N+](=O)[O-])ccc1OCc1ccccc1
IC50: > 80 µM (inactive)

CCNc1ccccc1CP(=O)(c1ccccc1)c1ccccc1O (centres undefined)
IC50: > 80 µM (inactive)

COc1cc(NCCCn2ccc(NC(=O)OCc3ccccc3)nc2=O)cc(OC)c1OC
IC50: > 80 µM (inactive)

Cc1cnc(C=NNC(N)=S)c2cccc(N)c12
IC50: > 80 µM (inactive)

O=C(Nc1ccc([N+](=O)[O-])cc1Cl)c1cc(Cl)ccc1O
IC50: > 80 µM (inactive)

CC(NC1=CC(=O)c2cccnc2C1=O)C(O)c1ccccc1 (centres undefined)
IC50: > 80 µM (inactive)

COc1cc(/C=N/n2cc(-c3ccccc3)[nH]c2=S)cc(OC)c1O
IC50: > 80 µM (inactive)

CC(C)(C)c1ccc(O)c(O)c1
IC50: 54.8 µM

COc1ccc(CCn2c(NN=C(C)C)nc3c2c(=O)[nH]c(=O)n3C)cc1
IC50: > 80 µM (inactive)

C[C@]12CC[C@@H]3c4cc(O)c(O)cc4CC[C@H]3[C@@H]1CC[C@@H]2O
IC50: 38 µM

O=C(COc1cccc2ccccc12)Nc1ccc(Cl)cc1C(=O)O
IC50: > 80 µM (inactive)

O=c1ccsn1Cc1ccccc1
IC50: 55.8 µM

C=CCc1c(C)[nH]c(=S)c(C#N)c1C
IC50: > 80 µM (inactive)

O=C(Nc1nnc(S(=O)(=O)N2CCCCC2)s1)c1cccc(Br)c1
IC50: > 80 µM (inactive)

O=C(CSc1nc2ccccc2[nH]1)NC1CCCc2ccccc21 (centres undefined)
IC50: > 80 µM (inactive)

CC(C)Nc1ccc(Nc2ccccc2)cc1
IC50: > 80 µM (inactive)

COc1cc(/C=C2\SC(c3ccc(C)cc3)=NC2=O)cc(OC)c1O
IC50: > 80 µM (inactive)

COc1ccc(C(=O)ON=C2C=C(C)C(=O)C(C)=C2)cc1
IC50: > 80 µM (inactive)

CCC(c1ccc(O)c(O)c1)C(CC)c1ccc(O)c(O)c1 (centres undefined)
IC50: > 80 µM (inactive)

CN(C)c1ccc(C=c2c3cc([N+](=O)[O-])ccc3n3c2cc(-c2ccccc2)[n+]3C)cc1
IC50: 33.2 µM

CN(CCO)c1cc(Sc2nc3ccccc3s2)c2nonc2c1[N+](=O)[O-]
IC50: 24 µM

c1cncc(CNc2ccc3c(c2)OCO3)c1
IC50: > 80 µM (inactive)

CN(C)c1cccc2c1c(NC(=O)c1ccc(F)cc1)nn2C
IC50: > 80 µM (inactive)
